Measured values reported in patent publication US7863330B2, “Deloxiglumide and proton pump inhibitor combination in the treatment of gastrointestinal disorders” (Rottapharm S.p.A., priority 2006, dated 2011).

What was measured:
CCK1 receptors = molecular target: T1, CCK1 receptors (Homo sapiens, UniProt P32238); settings: cited from earlier work
T1 sequence (P32238 1-428): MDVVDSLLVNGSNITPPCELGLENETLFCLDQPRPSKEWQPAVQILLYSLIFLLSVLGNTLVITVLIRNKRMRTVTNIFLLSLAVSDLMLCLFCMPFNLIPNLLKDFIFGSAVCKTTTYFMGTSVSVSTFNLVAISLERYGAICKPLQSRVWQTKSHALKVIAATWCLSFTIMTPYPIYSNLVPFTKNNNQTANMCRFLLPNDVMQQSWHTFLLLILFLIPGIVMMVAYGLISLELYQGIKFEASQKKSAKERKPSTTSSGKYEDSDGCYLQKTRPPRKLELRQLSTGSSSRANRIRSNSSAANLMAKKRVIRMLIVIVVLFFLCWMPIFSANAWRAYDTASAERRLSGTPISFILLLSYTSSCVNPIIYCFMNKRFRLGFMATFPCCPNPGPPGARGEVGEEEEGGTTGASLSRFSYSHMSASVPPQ

nonulcer dyspepsia = settings: cited from earlier work
[1] = test system: endogenous and exogenous CCK; settings: cited from earlier work
[2] = test system: CCK-induced delay in gastric emptying; settings: healthy subjects; cited from earlier work
[3] = test system: antro-pyloroduodenal dysmotility; settings: healthy subjects; intraduodenal infusion of a mixed liquid meal; cited from earlier work
[4] = test system: CCK release in response to duodenal lipid infusion; settings: healthy subjects, cited from earlier work
[5] = test system: acute reflux esophagitis in pylorus-ligated rats; test: Acute reflux esophagitis in pylorus- and limiting ridge-ligated rats; format: in vivo; set-up: key to Average Score lesions: lesion index 0 = no lesion to 6 = hemorrhage >40 mm/perforation; settings: for ED50: Rattus norvegicus, intraduodenal, compound administered separately, intraduodenally, from dose-response regression line, read-out: ED50 (dose which reduces the esophagus lesions by 50%); for % Effect vs. control: after 3 hours; for Average Score lesions: esophagus lesion index 0-6 after 3 hours
Procedure: Male rats of 175-200 g body weight were fasted for 24 hours prior the experiment. Water was allowed ad libitum. Under ether anesthesia, the abdomen was incised along the midline, and both pylorus and limiting ridge (transitional region between the forestomach and corpus) were simultaneously ligated. Consequently, the total capacity of the stomach to hold gastric juice was greatly diminished, resulting in reflux of gastric juice into the esophagus. Following ligation of pylorus and limiting ridge, the test compounds were given intraduodenally (5 ml/kg), and the abdomen was closed by suturing. After 3 hours, rats were killed by ether overdose and the gastroesophageal portion was excised. The lesion in the thoracic esophagus was scored macroscopically, using a lesion index according to the following criteria: no lesion as 0; edema as 1; reddening as 2; the length of hemorrhagic area<20 mm as 3; the length of hemorrhagic area 20-30 mm as 4; the length of hemorrhagic area 30-40 mm as 5; the length of hemorrhagic area>40 mm or perforation as 6.
The doses of the tested compounds which reduce of 50% the esophagus lesions (ED50) and their P=0.05 fiducial limits were calculated from the dose-response regression line.

[6] = test system: gastrointestinal motility; settings: preclinical and clinical studies; cited from earlier work
functional dyspepsia = settings: patients with functional dyspepsia; duodenal infusion of lipid with or without balloon distension; compared to placebo; cited from earlier work
CCK2 receptors = molecular target: T2, CCK2 receptors (Homo sapiens, UniProt P32239); settings: cited from earlier work
T2 sequence (P32239 1-447): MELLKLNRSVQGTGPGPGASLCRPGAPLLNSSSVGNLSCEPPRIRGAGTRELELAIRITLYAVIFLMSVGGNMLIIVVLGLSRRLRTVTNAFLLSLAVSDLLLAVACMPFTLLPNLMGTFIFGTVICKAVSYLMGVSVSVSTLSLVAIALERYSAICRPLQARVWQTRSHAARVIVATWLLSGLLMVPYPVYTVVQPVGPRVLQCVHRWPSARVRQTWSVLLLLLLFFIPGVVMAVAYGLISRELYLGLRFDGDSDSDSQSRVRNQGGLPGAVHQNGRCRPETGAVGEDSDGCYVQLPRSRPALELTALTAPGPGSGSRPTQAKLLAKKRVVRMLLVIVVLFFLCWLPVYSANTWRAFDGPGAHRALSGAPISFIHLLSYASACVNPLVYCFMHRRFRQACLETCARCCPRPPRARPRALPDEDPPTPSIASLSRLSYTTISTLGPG

CCCCCN(CCCOC)C(=O)C(CCC(=O)O)NC(=O)c1ccc(Cl)c(Cl)c1 (racemic) [Loxiglumide, R,S-4-(3,4-dichlorobenzoylamino)-5-(N-3-methoxypropyl-pentylamino)-5-oxo-pentanoic acid]
potency and specificity as CCK receptor antagonist (CCK1 receptors): potent, specific competitive antagonists
dyspeptic symptoms (nonulcer dyspepsia; patients with non-ulcer dyspepsia, 8-week study): significantly improved dyspeptic symptoms
gastric emptying (nonulcer dyspepsia; patients with nonulcer dyspepsia and delayed gastric emptying, comparison to placebo): accelerate gastric emptying
activity after oral administration [1]: active after oral administration
exogenous and endogenous CCK-induced delay in gastric emptying of liquids and solids [2]: reduced
antro-pyloroduodenal dysmotility [3]: modulated antro-pyloroduodenal dysmotility
proximal gastric relaxation ([4]; duodenal infusion of lipid): the relaxation was reversed
intragastric pressure ([4]; duodenal infusion of lipids): able to reverse the lowering of intragastric pressure

CCCCCN(CCCCC)C(=O)C(CCC(=O)O)NC(=O)c1ccc(Cl)c(Cl)c1 (racemic) [Lorglumide, R,S-4-[(3,4-Dichlorobenzoyl)amino]-5-(dipentylamino)-5-oxopentanoic acid]
potency and specificity as CCK receptor antagonist (CCK1 receptors): potent, specific competitive antagonists
activity after oral administration [1]: active after oral administration

COc1ccc2[nH]c([S+]([O-])Cc3ncc(C)c(OC)c3C)nc2c1 (stereo not drawn) [Omeprazole]
ED50 [5]: 5.4 mg/kg
% Effect vs. control ([5]; dose 0.1 mg/kg intraduodenally): 3.4%
Average Score lesions ([5]; dose 0.1 mg/kg intraduodenally): 5.6
% Effect vs. control ([5]; dose 0.3 mg/kg intraduodenally): 0%
Average Score lesions ([5]; dose 0.3 mg/kg intraduodenally): 5.8
% Effect vs. control ([5]; dose 1.0 mg/kg intraduodenally): 14.3%
Average Score lesions ([5]; dose 1.0 mg/kg intraduodenally): 4.8
% Effect vs. control ([5]; dose 3.0 mg/kg intraduodenally): 53.4%
Average Score lesions ([5]; dose 3.0 mg/kg intraduodenally): 2.7

CCCCCN(CCCOC)C(=O)[C@@H](CCC(=O)O)NC(=O)c1ccc(Cl)c(Cl)c1 [Dexloxiglumide, R-4-(3,4-dichlorobenzoylamino)-5-(N-3-methoxypropyl-pentylamino)-5-oxo-pentanoic acid]
potency relative to the racemic compound (loxiglumide) (CCK1 receptors; anti-CCK activity): approximately twice
colonic transit [6]: accelerates colonic transit
gallbladder contraction [6]: effective inhibitor of gallbladder contraction
gastric emptying [6]: accelerates gastric emptying
lower esophageal sphincter (LES) function [6]: improves lower esophageal sphincter (LES) function
ED50 [5]: 37.5 mg/kg
% Effect vs. control ([5]; dose 10 mg/kg intraduodenally): 0%
Average Score lesions ([5]; dose 10 mg/kg intraduodenally): 5.8
% Effect vs. control ([5]; dose 20 mg/kg intraduodenally): 17.2%
Average Score lesions ([5]; dose 20 mg/kg intraduodenally): 4.8
% Effect vs. control ([5]; dose 40 mg/kg intraduodenally): 51.7%
Average Score lesions ([5]; dose 40 mg/kg intraduodenally): 2.6
% Effect vs. control ([5]; dose 60 mg/kg intraduodenally): 62.1%
Average Score lesions ([5]; dose 60 mg/kg intraduodenally): 2.2
% Effect vs. control ([5]; dose 100 mg/kg intraduodenally): 100%
Average Score lesions ([5]; dose 100 mg/kg intraduodenally): 0
dyspepsia symptom scores (functional dyspepsia): significantly improved dyspepsia symptom scores
tolerance to water volume ([4]; duodenal lipid infusion): reversed the diminished tolerance to water volume

CCCN(CCC)C(=O)C(CCC(=O)O)NC(=O)c1ccccc1 (stereo not drawn) [proglumide]
potency and specificity as CCK receptor antagonist (CCK1 receptors): low potency and specificity
binding to CCK2 receptors (CCK2 receptors): effectively binds CCK2 receptors
